Test results taken from patent publication US11547681B2, “N-acylethanolamide derivatives and uses thereof” (ELIEM THERAPEUTICS, INC., priority 2016, dated 2023).

Legend:
[1] = male, Sprague-Dawley, rat, in vivo, po
Description: PEA was also dosed intravenously at 1 mg/kg. Blood samples were collected up to 8 hours post-dose, and PEA and PEA-prodrug plasma concentrations were determined with a qualified LC-MS/MS method. Pharmacokinetic analysis was conducted by a non-compartmental model using Phoenix WinNonlin v.6.4 software.
The IV dosing solution was prepared fresh on the day of dosing at 0.5 mg/mL in a vehicle comprised of 10% solutol HS15, 10% n-methylpyrrolidone (NMP), 10% polyethylene glycol 400 (PEG400), and 70% water. For PO dosing, torpac capsules were loaded with an appropriate amount of PEA, PEA-prodrug, or normast powder. […] The prodrug dose in group 5 was the maximum amount of powder that would fit into a single capsule.
The pharmacokinetics of PEA and the PEA-prodrug were evaluated in fasted male Sprague-Dawley rats. Rats were housed one per cage. Each rat was fitted with a jugular vein cannula (JVC) for blood collection. Rats intended for IV dosing were fitted with an additional JVC for dosing. Each study group was dosing in triplicate. Rats were fasted for a minimum of twelve hours prior to dosing. Food was returned at four hours post dosing. Animals had free access to water throughout the study.
Blood samples (˜300 μL) were collected from the rats via a JVC and placed into chilled polypropylene tubes containing sodium heparin as an anticoagulant, and 30 μL of 0.5 M citric acid. Samples were maintained chilled throughout processing. Blood samples were centrifuged at 4° C. and 3,000 g for 5 minutes. Plasma (˜150 μL) was then transferred to a chilled, labeled polypropylene tube containing 15 μL of 10% formic acid, placed on dry ice, and stored in a freezer maintained at −60° C. to −80° C.
Pharmacokinetic parameters were determined with Phoenix WinNonlin (v6.4) software using a non-compartmental model. Maximum plasma concentrations (C0) after IV dosing were estimated by extrapolation of the first two time points back to t=0. […] Area under the time concentration curve (AUC) was calculated using the linear trapezoidal rule with calculation to the last quantifiable data point, and with extrapolation to infinity if applicable. […] Mean residence time, MRT, was calculated by dividing the area under the moment curve (AUMC) by the AUC. Clearance (CL) was calculated from dose/AUC. Steady-state volume of distribution (Vss) was calculated from CL*MRT (mean residence time). Bioavailability was determined by dividing the individual PO dose normalized AUClast values by the average IV AUClast value. Any samples below the limit of quantitation were treated as zero for pharmacokinetic data analysis.
Measured concentrations of PEA in plasma samples were corrected by subtracting the concentration of PEA measured in the pre-dose samples. […] Any corrected values that were negative are reported as not determined (ND).

[2] = Summary of half life data (Table A), matrix not stated; format: in vitro ADME
[3] = in vitro; conditions: male; for Measured concentration of PEA (analyte) / % Remaining of Initial: 1 μM; for % Remaining of Initial / microsomal CLint at 1 μM / half-life at 1 μM: microsomes
Description: (§1) Reaction mixture, minus cofactors, was prepared as described below. Test article was added into the reaction mixture at a final concentration of 1 μM. […] An aliquot of the reaction mixture (without cofactor) was equilibrated in a shaking water bath at 37° C. for 3 minutes. The reaction was initiated by the addition of cofactor, and the mixture was incubated in a shaking water bath at 37° C. Aliquots (100 μL) were withdrawn at 0, 10, 20, 30, and 60 minutes. Test article samples were immediately combined with 300 μL of ice-cold acetonitrile containing 1% formic acid. Control samples were immediately combined with 400 μL of ice-cold 50/50 acetonitrile (ACN)/dH2O containing 0.1% formic acid and internal standard to terminate the reaction. Samples were then mixed and centrifuged to precipitate proteins. Calibration standards were prepared in matched matrix. Samples and standards were assayed by LC-MS/MS using electrospray ionization for both dosed prodrug and expected drug (PEA). Analytical conditions are outlined in Appendix 8-1. Test article concentration at each time point was compared to test article concentration at time 0 to determine the percent remaining at each time point. Half-lives were calculated using GraphPad software, fitting to a single-phase exponential decay equation.
Reaction mixture, minus cofactors, was prepared as described below. Test article was added into the reaction mixture at a final concentration of 1 μM. […] An aliquot of the reaction mixture (without cofactor) was equilibrated in a shaking water bath at 37° C. for 5 minutes. Reaction was initiated by the addition of cofactor, and the mixture was incubated in a shaking water bath at 37° C. Aliquots (100 μL) were withdrawn at 0, 10, 20, 30, and 60 minutes. Test article samples were immediately combined with 300 μL of ice-cold acetonitrile containing 1% formic acid. Control samples were immediately combined with 400 μL of ice-cold 50/50 acetonitrile (ACN)/dH2O containing 0.1% formic acid and internal standard to terminate the reaction. Samples were then mixed and centrifuged to precipitate proteins. Calibration standards were prepared in matched matrix. Samples and standards were assayed by LC-MS/MS using electrospray ionization for both the dosed prodrug and the expected drug (PEA). Analytical conditions are outlined in Appendix 10-1. Test article concentration at each time point was compared to the test article concentration at time 0 to determine the percent remaining at each time point. Half-lives were calculated using GraphPad software, fitting to a single-phase exponential decay equation.
as §1, with “minutes. Reaction” for “minutes. The reaction”, “300 μL,” for “300 μL”, “Appendix 13-1.” for “Appendix 8-1.”
Reaction mixture, minus cofactors, was prepared as described below.

[4] = Simulated intestinal fluid stability, SIF containing pancreatin; format: in vitro ADME; conditions: for % Remaining of Initial (n = 1): 1 μM (Example 14); for Measured Concentration of Drug: test article dosed at 1 μM (Example 14)
Description: (§2) Studies were carried out in simulated intestinal fluid containing pancreatin. Simulated intestinal fluid was prepared by dissolving 6.8 g of monobasic potassium phosphate in 1.0 L of water. Pancreatin was then added to the solution and the pH was adjusted to 6.8. A DMSO stock was first prepared for the test articles. Aliquots of the DMSO solution were dosed into 300 μL of matrix, which had been pre-warmed to 37° C., at a final test article concentration of 1 μM. An individual tube was dosed for each time point. At each time point (0, 15, 30, 60, and 120 minutes), 900 μL of ice-cold acetonitrile containing 1.0% formic acid was added to an individual tube. Starting time for each tube was staggered such that all timepoints would finish at the same time. After the conclusion of the experiment, tubes were mixed and then centrifuged at 3,000 rpm for 10 minutes. Calibration standards were prepared in matched matrix. […] Analytical conditions are outlined in Appendix 11-1.
as §2, with “prepared for test articles.” for “prepared for the test articles.”, “Aliquots of DMSO solution” for “Aliquots of the DMSO solution”, “individual tube. The starting time for” for “individual tube. Starting time for”, “that all time points would finish” for “that all timepoints would finish”, “in Appendix 14-1.” for “in Appendix 11-1.”

[5] = Beagle, dog, calculated value in parentheses
[6] = CD-1, mouse, calculated value in parentheses

Bioavailability [1]: 12.1%
half-life [2]: < 1 min
Measured concentration of PEA (analyte) ([3]; Beagle, dog, 0 min): 0.053 µM
Measured concentration of PEA (analyte) ([3]; Beagle, dog, 10 min): 0.59 µM
Measured concentration of PEA (analyte) ([3]; Beagle, dog, 20 min): 0.48 µM
Measured concentration of PEA (analyte) ([3]; Beagle, dog, 30 min): 0.43 µM
Measured concentration of PEA (analyte) ([3]; Beagle, dog, 60 min): 0.20 µM
% Remaining of Initial ([3]; Beagle, dog, 0 h): 100%
% Remaining of Initial ([3]; Beagle, dog, 10 min): 4.4%
% Remaining of Initial ([3]; Beagle, dog, 20 min): 1.6%
% Remaining of Initial ([3]; Beagle, dog, 0.5 h): 1.4%
% Remaining of Initial ([3]; Beagle, dog, 1 h): 1.5%
microsomal CLint at 1 μM ([3]; Beagle, dog): > 139 µL/min/mg
microsomal CLint at 1 μM [3, 5]: 618 µL/min/mg
half-life at 1 μM ([3]; Beagle, dog): < 10 min
half-life at 1 μM [3, 5]: 2.2 min
Measured concentration of PEA (analyte) ([3]; CD-1, mouse, 0 min): 0.29 µM
Measured concentration of PEA (analyte) ([3]; CD-1, mouse, 10 min): 0.27 µM
Measured concentration of PEA (analyte) ([3]; CD-1, mouse, 20 min): 0.12 µM
Measured concentration of PEA (analyte) ([3]; CD-1, mouse, 30 min): 0.089 µM
Measured concentration of PEA (analyte) ([3]; CD-1, mouse, 60 min): 0.0093 µM
% Remaining of Initial ([3]; CD-1, mouse, 0 h): 100%
% Remaining of Initial ([3]; CD-1, mouse, 10 min): 7.6%
% Remaining of Initial ([3]; CD-1, mouse, 20 min): 3.0%
% Remaining of Initial ([3]; CD-1, mouse, 0.5 h): 2.1%
% Remaining of Initial ([3]; CD-1, mouse, 1 h): 1.8%
microsomal CLint at 1 μM ([3]; CD-1, mouse): > 139 µL/min/mg
microsomal CLint at 1 μM [3, 6]: 503 µL/min/mg
half-life at 1 μM ([3]; CD-1, mouse): < 10 min
half-life at 1 μM [3, 6]: 2.8 min
% Remaining of Initial (n = 1) ([4]; 0 min): 100%
Measured Concentration of Drug ([4]; 0 min): 0.088 µM
% Remaining of Initial (n = 1) ([4]; 15 min): <4.5%
Measured Concentration of Drug ([4]; 15 min): 0 µM
% Remaining of Initial (n = 1) ([4]; 30 min): <4.5%
Measured Concentration of Drug ([4]; 30 min): 0 µM
% Remaining of Initial (n = 1) ([4]; 60 min): <4.5%
Measured Concentration of Drug ([4]; 60 min): 0 µM
% Remaining of Initial (n = 1) ([4]; 120 min): <4.5%
Measured Concentration of Drug ([4]; 120 min): 0 µM
Compound: CCCCCCCCCCCCCCCC(=O)NCCOC(=O)CCC(=O)OC(COC(=O)CCC)COC(=O)CCC [Compound I-16]
